Source: US11524962B2, “Substituted pyrrolo[2,3-d]pyrimidines as inhibitors of protein arginine methyl transferase 5 (PRMT5)” (PRELUDE THERAPEUTICS, INCORPORATED, priority 2017, dated 2022)
pIC50: −log10 of the molar value.

tested on: Granta-519 cells; test: Cell proliferation assay in Granta-519 cells; format: cell-based; conditions: Homo sapiens, 240 h; Granta-519, day 10; read-out: Prolif_Granta IC50
Procedure: Granta-519 cells were maintained in PRMI 1640 (Corning Cellgro, Catalog #: 10-040-CV) medium supplemented with 10% v/v FBS (GE Healthcare, Catalog #: SH30910.03). Compounds were dissolved in DMSO to make 10 mM stocks and stored at −20° C. Nine-point, 3-fold serial dilutions were made with DMSO with top concentration at 1 mM (working stocks).
On day of experiment, compound working stocks were further diluted at 1:50 with fresh medium in 96 well plate, and 10 μL of diluted drugs were added to a new 96 well plate for proliferation assay. Cells growing at exponential phase were spun down at 1500 rpm for 4 min and resuspend in fresh medium to reach a density of 0.5×10^6 cells/ml. 200 ul of cells were added to 96 well plate containing diluted drugs and incubated for 3 days. DMSO was used a vehicle control.
On day 3, 10 μL of Cell Counting Kit-8 (CCK-8, Jojindo, CK04-13) solution was added to a new 96 well plate. Cells incubated with drugs for 3 days were resuspended by pipetting up and down, and 100 μL of cells were transferred to 96 well plate containing CCK-8 reagent to measure viable cells. Plates were incubated in CO2 incubator for 2 hours and OD450 values were measured with a microplate reader (iMark microplate reader, Bio-Rad).
For re-plating, compound working stocks were diluted at 1:50 with fresh medium and 10 μL of diluted drugs were added to a new 96 well plate. Cells from Day 3 plate (50 ul) were added to 96 well plate containing fresh drug and additional 150 μL of fresh medium was added to reach 200 μL volume. Plate was returned to CO2 incubator and incubated for 3 more days. Viable cells measurement and re-plating were repeated on day 6, and the final viable cells measurement was taken on day 10.
Percentage of viable cells, relative to DMSO vehicle control, were calculated and plotted in Graphpad Prism ([Inhibitor]vs. normalized response−Variable slope) to determine proliferation IC50 values on day 10.
One day before experiment, Granta-519 cells were passaged to a density of 0.5×10^6 cells/ml. U-87 MG cells were trypsinized and 2,000 cells were seeded into 96-well plates and allow to grow overnight. On the day of experiment (day 0), Granta-519 Cells were spun down at 1,500 rpm for 4 min, resuspended in fresh medium to 0.5×10^6 cells/ml and 190 ul of cells were added to 96 well plates. For U-87 MG cells, old medium was removed and replaced with 190 uL fresh medium. Compound working stocks were first diluted at 1:50 with fresh medium in 96 well plate and 10 μL of diluted drugs were added to 96 well plates containing cells and incubated for 3 days. DMSO was used a vehicle control.
One day 3, 50 uL of Granta-519 cells were transferred to a new 96-well plate and 140 uL fresh medium was added. For U-87 MG cells, old medium was removed and replaced with 190 uL fresh medium. Compound working stocks were freshly diluted at 1:50 with medium and 10 μL of diluted drugs were added to cells and grow for 3 additional days. The same process was repeated on day 6. Cells were allowed to grow for additional 4 days.
On day 10, 100 uL Granta-519 cells were transferred to a new 96 well plate and 10 μL of Cell Counting Kit-8 (CCK-8, Jojindo, CK04-13) solution was added. For U-87 MG cells, old medium was removed and replaced with 100 uL fresh medium and 10 uL CCK-8 solution was added. Plates were incubated in CO2 incubator for 2 hours (Granta-519 cells) or 30 min (U-87 MG cells) and OD450 values were measured with a microplate reader (iMark microplate reader, Bio-Rad). Percentage of viable cells, relative to DMSO vehicle control, were calculated and plotted in Graphpad Prism ([Inhibitor]vs. normalized response−Variable slope) to determine proliferation IC50 values on day 10.
These cell proliferation procedures produced the data in Table 7.

In order of falling pIC50:
1. Nc1ncnc2c1ccn2[C@@H]1O[C@H]([C@H](O)c2ccc3c(c2)CC3)[C@@H](O)[C@H]1O [Example 2, (2R,3R,4S,5R)-2-(4-amino-7H-pyrrolo[2,3-d]pyrimidin-7-yl)-5-((R)-bicyclo[4.2.0]octa-1(6),2,4-trien-3-yl(hydroxy)methyl)tetrahydrofuran-3,4-diol]  7.46
2. C[C@@](O)(c1ccc2c(c1)CC2)[C@H]1O[C@@H](n2ccc3c(N)ncnc32)[C@H](O)[C@@H]1O [Example 1, (2R,3R,4S,5S)-2-(4-amino-7H-pyrrolo[2,3-d]pyrimidin-7-yl)-5-((R)-1-(bicyclo[4.2.0]octa-1(6),2,4-trien-3-yl)-1-hydroxyethyl)tetrahydrofuran-3,4-diol]  7.42
3. Nc1ncnc2c1c(F)cn2[C@@H]1O[C@H]([C@H](O)c2ccc3c(c2)CC3)[C@@H](O)[C@H]1O [Example 6, (2R,3R,4S,5R)-2-(4-amino-5-fluoro-7H-pyrrolo[2,3-d]pyrimidin-7-yl)-5-((R)-bicyclo[4.2.0]octa-1(6),2,4-trien-3-yl(hydroxy)methyl)tetrahydrofuran-3,4-diol]  7.17
4. Cc1ncnc2c1ccn2[C@@H]1O[C@H]([C@H](O)c2ccc3c(c2)CC3)[C@@H](O)[C@H]1O [Example 11, (2R,3S,4R,5R)-2-((R)-bicyclo[4.2.0]octa-1(6),2,4-trien-3-yl(hydroxy)methyl)-5-(4-methyl-7H-pyrrolo[2,3-d]pyrimidin-7-yl)tetrahydrofuran-3,4-diol]  7.04
5. Cc1ncnc2c1ccn2[C@@H]1O[C@H]([C@H](O)c2nc3c(s2)CCC3)[C@@H](O)[C@H]1O [Example 52, (2S,3S,4R,5R)-2-((S)-(5,6-dihydro-4H-cyclopenta[d]thiazol-2-yl)(hydroxy)methyl)-5-(4-methyl-7H-pyrrolo[2,3-d]pyrimidin-7-yl)tetrahydrofuran-3,4-diol]  6.40
6. CNc1ncnc2c1ccn2[C@@H]1O[C@H]([C@H](O)c2ccc3c(c2)CC3)[C@@H](O)[C@H]1O [Example 54, (2R,3S,4R,5R)-2-((R)-bicyclo[4.2.0]octa-1(6),2,4-trien-3-yl(hydroxy)methyl)-5-(4-(methylamino)-7H-pyrrolo[2,3-d]pyrimidin-7-yl)tetrahydrofuran-3,4-diol]  6.00
7. Nc1ncnc2c1c(Br)cn2[C@@H]1O[C@H]([C@H](O)c2ccc3c(c2)CC3)[C@@H](O)[C@H]1O [Example 36, (2R,3R,4S,5R)-2-(4-amino-5-bromo-7H-pyrrolo[2,3-d]pyrimidin-7-yl)-5-((R)-bicyclo[4.2.0]octa-1,3,5-trien-3-yl(hydroxy)methyl)tetrahydrofuran-3,4-diol]  5.96
8. OCCc1ncnc2c1ccn2[C@@H]1O[C@H]([C@H](O)c2ccc3c(c2)CC3)[C@@H](O)[C@H]1O [Example 53, (2R,3S,4R,5R)-2-((R)-bicyclo[4.2.0]octa-1,3,5-trien-3-yl(hydroxy)methyl)-5-(4-(2-hydroxyethyl)-7H-pyrrolo[2,3-d]pyrimidin-7-yl)tetrahydrofuran-3,4-diol]  5.00
9. O[C@@H]1[C@H](O)[C@@H]([C@H](O)c2ccc3c(c2)CC3)O[C@H]1n1ccc2c(Cl)ncnc21 [Example 56, (2R,3S,4R,5R)-2-((R)-bicyclo[4.2.0]octa-1(6),2,4-trien-3-yl(hydroxy)methyl)-5-(4-chloro-7H-pyrrolo[2,3-d]pyrimidin-7-yl)tetrahydrofuran-3,4-diol]  4.30

same assay, conditions: Homo sapiens, Granta-519; initial testing; read-out: Prolif_(Granta) IC50

For `C[C@@](O)(c1ccc2c(c1)CC2)[C@H]1O[C@@H](n2ccc3c(N)ncnc32)[C@H](O)[C@@H]1O` [Example 1, (2R,3R,4S,5S)-2-(4-amino-7H-pyrrolo[2,3-d]pyrimidin-7-yl)-5-((R)-1-(bicyclo[4.2.0]octa-1(6),2,4-trien-3-yl)-1-hydroxyethyl)tetrahydrofuran-3,4-diol], the pIC50 was 7.55.
